Results published in US12133839B2, “Cannabinoid derivatives and methods for their preparation” (priority 2018, dated 2024).

Experiments:
[1] = test system: Cytochrome P450 (Cy-P450)
[2] = test system: Cy-P450; conditions: compared with CBD

## CCCCCc1cc(O)c(C2CC(C)CCC2C(C)C)c(O)c1C(=O)CC (centres unmarked) [[Ar]-Propionyl Tetrahydrocannabidiol]
[1]
  time for which THC metabolism is delayed: up to 48 hours

## CCCCCc1cc(O)c(C2CC(C)CCC2C(C)C)c(O)c1C(C)=O (centres unmarked) [Tetradhydro 2′-acetyl CBD (III), [Ar]-Acetyl Tetrahydrocannabidiol]
[1]
  time for which formation of 11-Hydroxy THC is prevented (enhanced CBD effect): about one

## CCCCCc1cc(O)c(C2CC(C)CCC2C(C)C)c(O)c1 (centres unmarked) [Tetrahydro CBD (II), Tetrahydrocannabidiol]
[2]
  oxidation by Cy-P450: slower oxidation
[1]
  duration of the increased CBD activity: only a few minutes
[1]; compared with CBD
  increase in CBD activity, in effect and duration: approximately double
